These results are taken from ChEMBL document CHEMBL1201862, “PubChem BioAssay data set” (2004).

For test [1], the target named is Serine/threonine-protein kinase Chk2 (Homo sapiens, UniProt O96017). It is filed as functional.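 Further: CHEK2 entry within a kinome-wide screening panel.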
Test [2] has as its target Aurora kinase A (Homo sapiens, UniProt O14965). The format is functional.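 Further: value from the Navigating the Kinome kinase panel profiling, panel entry STK6.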
In test [3] the target is Casein kinase II subunit alpha (Homo sapiens, UniProt P68400). The format is functional.
Casein kinase II subunit alpha, sequence (P68400 whole entry): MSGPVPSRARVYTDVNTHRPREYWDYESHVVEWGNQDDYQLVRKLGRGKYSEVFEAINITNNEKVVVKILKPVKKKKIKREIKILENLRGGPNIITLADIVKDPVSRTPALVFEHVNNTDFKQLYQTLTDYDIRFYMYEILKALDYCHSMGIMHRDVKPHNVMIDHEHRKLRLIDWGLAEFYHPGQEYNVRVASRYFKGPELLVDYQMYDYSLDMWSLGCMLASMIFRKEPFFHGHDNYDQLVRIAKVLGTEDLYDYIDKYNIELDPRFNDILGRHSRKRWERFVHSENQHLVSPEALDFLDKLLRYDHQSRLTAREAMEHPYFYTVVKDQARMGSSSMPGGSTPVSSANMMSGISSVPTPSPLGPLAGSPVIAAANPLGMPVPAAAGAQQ
In test [4] the target is Fibroblast growth factor receptor 1 (Homo sapiens, UniProt P11362). The format is functional.
Fibroblast growth factor receptor 1, sequence (P11362 whole entry): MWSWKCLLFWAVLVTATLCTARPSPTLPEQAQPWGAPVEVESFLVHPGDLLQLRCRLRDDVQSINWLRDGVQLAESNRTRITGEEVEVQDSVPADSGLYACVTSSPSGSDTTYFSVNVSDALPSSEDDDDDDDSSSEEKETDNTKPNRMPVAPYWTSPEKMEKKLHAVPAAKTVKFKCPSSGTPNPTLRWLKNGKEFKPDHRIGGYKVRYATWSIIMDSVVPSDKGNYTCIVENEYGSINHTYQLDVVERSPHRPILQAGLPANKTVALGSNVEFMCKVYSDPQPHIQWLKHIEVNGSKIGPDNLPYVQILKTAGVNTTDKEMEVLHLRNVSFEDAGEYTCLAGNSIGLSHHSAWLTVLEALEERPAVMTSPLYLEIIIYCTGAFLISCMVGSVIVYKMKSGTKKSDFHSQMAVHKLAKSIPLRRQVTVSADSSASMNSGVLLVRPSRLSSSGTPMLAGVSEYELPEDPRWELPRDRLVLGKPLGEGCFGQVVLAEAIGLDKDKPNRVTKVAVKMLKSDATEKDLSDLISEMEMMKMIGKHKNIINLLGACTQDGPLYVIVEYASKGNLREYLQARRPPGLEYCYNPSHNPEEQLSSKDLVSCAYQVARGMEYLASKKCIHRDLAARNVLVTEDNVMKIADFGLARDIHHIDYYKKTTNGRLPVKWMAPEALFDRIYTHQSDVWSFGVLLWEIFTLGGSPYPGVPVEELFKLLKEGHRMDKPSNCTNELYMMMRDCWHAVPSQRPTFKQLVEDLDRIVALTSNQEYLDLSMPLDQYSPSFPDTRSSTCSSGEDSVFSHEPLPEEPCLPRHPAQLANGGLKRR
Test [5] has as its target MAP/microtubule affinity-regulating kinase 3 (Homo sapiens, UniProt P27448). The format is functional.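 Further: MARK3 affinity measured as one member of a kinome panel.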
For test [6], the target named is Cyclin-dependent kinase 1 (Homo sapiens, UniProt P06493). The format is functional.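 Further: Kinome-wide panel profiling, with the target listed as panel member CDC2.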
Cyclin-dependent kinase 1, sequence (P06493 whole entry): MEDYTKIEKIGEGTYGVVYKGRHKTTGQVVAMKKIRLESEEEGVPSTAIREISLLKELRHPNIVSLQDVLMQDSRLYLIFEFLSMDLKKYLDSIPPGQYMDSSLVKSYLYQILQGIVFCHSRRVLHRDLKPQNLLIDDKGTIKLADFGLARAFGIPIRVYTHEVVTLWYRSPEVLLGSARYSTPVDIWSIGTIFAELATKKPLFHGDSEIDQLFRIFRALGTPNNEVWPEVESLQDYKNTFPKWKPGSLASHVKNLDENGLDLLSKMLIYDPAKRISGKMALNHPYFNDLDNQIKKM
Test [7] can be described thus: NIH-3T3 fibroblast cytotoxicity, dose response, cytotoxicity control, cell-based, fluorescence, Alamar Blue, secondary assay (AID 2327).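 Further: NIH-3T3 mouse fibroblasts cultured with fluconazole at 8 µg/mL.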 The format is functional. (In general: Resazurin is reduced to fluorescent resorufin, in cell work by metabolically active cells.)
Test [8] is described as follows: viability of uninfected HEp-2 cells – cell-based, HTS, cytotoxicity control for RSV inhibitor project, dose response (AID 2410). It is filed as functional. Conditions: human respiratory syncytial virus.
Test [9] deals with Streptococcus sp. 'group A'. In words: Streptococcus pyogenes SK(-)GAS viability under kanamycin – luminescence, BacTiterGlo, confirmation, counter-screen for streptokinase expression inhibitor project, dose response (AID 1900). It is filed as functional, organism-based. On the technique in general: Counterscreens check selectivity or assay interference.
Test [10] has as its target T1, Streptokinase A (Streptococcus pyogenes serotype M1, UniProt P10520).
T1 sequence (P10520 whole entry): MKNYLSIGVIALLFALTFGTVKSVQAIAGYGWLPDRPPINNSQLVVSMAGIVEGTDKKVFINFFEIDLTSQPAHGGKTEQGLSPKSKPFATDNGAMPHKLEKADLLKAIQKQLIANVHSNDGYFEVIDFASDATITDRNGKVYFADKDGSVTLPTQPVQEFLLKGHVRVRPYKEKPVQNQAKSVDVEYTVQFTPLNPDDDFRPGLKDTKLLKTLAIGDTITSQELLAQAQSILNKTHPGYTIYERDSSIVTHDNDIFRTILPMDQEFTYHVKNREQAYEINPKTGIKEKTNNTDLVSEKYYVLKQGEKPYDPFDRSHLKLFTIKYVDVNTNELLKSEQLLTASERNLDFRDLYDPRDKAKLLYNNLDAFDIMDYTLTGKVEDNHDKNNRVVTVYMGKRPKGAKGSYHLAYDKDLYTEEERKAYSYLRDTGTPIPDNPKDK
In words: viability-normalized secreted streptokinase activity reduction – plasminogen activation absorbance, OD405, dose response (AID 1914).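 Further: secreted streptokinase activity via plasminogen activation per viability signal from cell pellet.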 It is filed as functional, Streptococcus pyogenes M1 GAS.

Test [11] in a line: fluconazole-exposed Candida albicans growth modulators – fluorescence, retest, confirmation (AID 2467). It is filed as functional, cell-based.
The subject of test [12] is Streptococcus. The experiment in a line: GAS UMAA2166 growth inhibition – luminescence, BacTiterGlo, counter-screen for streptokinase expression inhibitor project, dose response (AID 1915).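 Further: potency for reduction of bacterial viability or growth.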 It is filed as functional, organism-based.
Test [13] concerns CHO-K1. In words: Counterscreen for antagonists of the orexin 1 receptor (OX1R; HCRTR1): Homogeneous time resolved fluorescence (HTRF)-based cell-based dose response assay to identify antagonists of the parental CHO-K1 cell line. [Related pubchem assays (depositor defined):AID434989, AID435008, AID463079, AID485270, AID492963, AID492964, AID492965, AID493232, AID504699, AID504701]. The format is functional. Conditions: Cricetulus griseus.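 Further: potency for inhibition of ATP-stimulated IP1 production as antagonists.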

A short description of test [14]: Counterscreen for antagonists of the orexin 1 receptor (OX1R; HCRTR1): Fluorescence-based cell-based high throughput dose response assay to identify antagonists of the parental CHO cell line. [Related pubchem assays (depositor defined):AID434989, AID435008, AID463079, AID485270, AID492963, AID492964, AID492965, AID493232, AID504699, AID504701]. It is filed as functional.

The target of test [15] is T2, Orexin/Hypocretin receptor type 1 (Homo sapiens, UniProt O43613). The experiment in a line: Homogeneous Time Resolved Fluorescence (HTRF)-based cell-based high throughput dose response assay for antagonists of the orexin 1 receptor (OX1R; HCRTR1). [Related pubchem assays (depositor defined):AID434989, AID435008, AID463079, AID485270, AID492963, AID492964, AID492965, AID493232, AID504717, AID504718]. It is filed as functional. A general note: TR-FRET usually uses a lanthanide donor and a delayed reading to cut background.
T2 sequence (O43613 whole entry): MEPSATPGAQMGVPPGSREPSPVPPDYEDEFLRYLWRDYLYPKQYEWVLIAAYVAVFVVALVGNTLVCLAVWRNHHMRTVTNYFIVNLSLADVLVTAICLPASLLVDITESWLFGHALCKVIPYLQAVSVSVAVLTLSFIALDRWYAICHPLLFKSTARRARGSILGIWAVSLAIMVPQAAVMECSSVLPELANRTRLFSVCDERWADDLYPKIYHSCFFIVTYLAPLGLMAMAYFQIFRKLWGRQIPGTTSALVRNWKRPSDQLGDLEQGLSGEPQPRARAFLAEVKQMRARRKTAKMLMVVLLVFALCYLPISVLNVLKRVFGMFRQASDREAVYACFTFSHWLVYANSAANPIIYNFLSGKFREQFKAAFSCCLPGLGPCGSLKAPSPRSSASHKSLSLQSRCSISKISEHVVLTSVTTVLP

The target in test [16] is T2, Orexin/Hypocretin receptor type 1. The experiment in a line: Fluorescence-based cell-based high throughput dose response assay for antagonists of the orexin 1 receptor (OX1R; HCRTR1). [Related pubchem assays (depositor defined):AID434989, AID435008, AID463079, AID485270, AID492963, AID492964, AID492965, AID493232, AID504717, AID504718]. The format is functional.
For test [17], the target named is T3, Replicative DNA helicase DnaB (Mycobacterium tuberculosis, UniProt P9WMR3).
T3 sequence (P9WMR3 whole entry): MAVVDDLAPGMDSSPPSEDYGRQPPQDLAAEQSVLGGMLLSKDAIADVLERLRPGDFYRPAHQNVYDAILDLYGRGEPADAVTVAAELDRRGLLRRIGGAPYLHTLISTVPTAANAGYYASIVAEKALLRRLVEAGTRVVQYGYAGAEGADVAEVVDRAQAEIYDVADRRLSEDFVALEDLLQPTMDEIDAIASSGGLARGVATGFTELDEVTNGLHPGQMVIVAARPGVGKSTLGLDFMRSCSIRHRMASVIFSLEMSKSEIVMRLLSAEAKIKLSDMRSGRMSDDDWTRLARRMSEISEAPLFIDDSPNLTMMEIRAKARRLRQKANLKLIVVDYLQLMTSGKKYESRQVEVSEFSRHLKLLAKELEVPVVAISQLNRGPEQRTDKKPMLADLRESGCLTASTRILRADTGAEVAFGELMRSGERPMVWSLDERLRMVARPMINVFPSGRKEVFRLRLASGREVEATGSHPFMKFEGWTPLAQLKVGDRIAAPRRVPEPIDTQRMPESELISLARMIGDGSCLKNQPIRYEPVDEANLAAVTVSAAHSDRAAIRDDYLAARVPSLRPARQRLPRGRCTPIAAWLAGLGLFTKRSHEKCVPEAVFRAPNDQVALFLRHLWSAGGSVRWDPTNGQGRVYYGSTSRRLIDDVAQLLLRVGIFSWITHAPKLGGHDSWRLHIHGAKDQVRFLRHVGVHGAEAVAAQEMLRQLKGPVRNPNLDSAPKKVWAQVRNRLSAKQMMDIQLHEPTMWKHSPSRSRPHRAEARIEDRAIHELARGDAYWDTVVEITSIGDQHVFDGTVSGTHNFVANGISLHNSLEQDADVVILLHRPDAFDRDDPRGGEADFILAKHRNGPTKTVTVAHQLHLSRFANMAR
The experiment in a line: DnaB intein splicing inhibitors, dose response, biochemical, cell-free fluorescence (AID 449749). It is filed as functional.

The target of test [18] is T4, Protein RecA (Mycobacterium tuberculosis, UniProt P9WHJ3).
T4 sequence (P9WHJ3 whole entry): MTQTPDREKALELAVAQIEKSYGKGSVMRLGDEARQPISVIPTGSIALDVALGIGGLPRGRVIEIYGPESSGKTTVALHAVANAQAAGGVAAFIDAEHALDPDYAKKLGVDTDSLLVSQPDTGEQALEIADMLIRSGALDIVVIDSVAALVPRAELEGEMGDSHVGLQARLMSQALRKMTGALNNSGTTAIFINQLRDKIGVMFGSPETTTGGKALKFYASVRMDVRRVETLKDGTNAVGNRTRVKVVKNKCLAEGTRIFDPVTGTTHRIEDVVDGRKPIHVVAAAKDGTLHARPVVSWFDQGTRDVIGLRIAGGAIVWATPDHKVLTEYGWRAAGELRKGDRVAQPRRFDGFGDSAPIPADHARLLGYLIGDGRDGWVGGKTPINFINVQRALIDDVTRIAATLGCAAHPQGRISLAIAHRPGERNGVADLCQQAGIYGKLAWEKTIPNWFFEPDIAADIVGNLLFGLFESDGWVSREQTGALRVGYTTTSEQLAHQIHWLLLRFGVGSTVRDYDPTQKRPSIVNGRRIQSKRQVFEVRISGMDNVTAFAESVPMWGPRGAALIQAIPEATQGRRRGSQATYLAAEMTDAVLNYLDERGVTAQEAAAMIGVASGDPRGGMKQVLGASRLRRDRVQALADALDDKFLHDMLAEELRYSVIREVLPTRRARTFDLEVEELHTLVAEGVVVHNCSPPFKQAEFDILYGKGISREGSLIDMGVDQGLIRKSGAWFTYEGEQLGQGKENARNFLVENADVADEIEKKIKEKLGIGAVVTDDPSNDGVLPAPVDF
The experiment in a line: Fluorescence Cell-Free Homogeneous Dose Retest to Identify Inhibitors of RecA-Intein Splicing Activity. [Related pubchem assays (depositor defined):AID2097, AID2223, AID489010, AID492950]. The format is functional.

For test [19], the system named is INS1. In words: INS-1E survival protection against cytokine death – cell-based, luminescence, retest, dose response (AID 449756).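 Further: cell death triggered by IL-1 beta plus TNF-alpha plus IFN-gamma mixture; protective hits raise ATP signal compared with cytokine alone wells.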 It is filed as functional. Conditions: Rattus norvegicus.
The target in test [20] is T5, Orexin receptor type 2 (Homo sapiens, UniProt O43614). In words: Counterscreen assay for antagonists of the orexin 1 receptor (OX1R; HCRTR1): Fluorescence-based cell-based dose response assay for antagonists of the orexin 2 receptor (OX2R; HCRTR2), run by assay provider. The format is functional.
T5 sequence (O43614 whole entry): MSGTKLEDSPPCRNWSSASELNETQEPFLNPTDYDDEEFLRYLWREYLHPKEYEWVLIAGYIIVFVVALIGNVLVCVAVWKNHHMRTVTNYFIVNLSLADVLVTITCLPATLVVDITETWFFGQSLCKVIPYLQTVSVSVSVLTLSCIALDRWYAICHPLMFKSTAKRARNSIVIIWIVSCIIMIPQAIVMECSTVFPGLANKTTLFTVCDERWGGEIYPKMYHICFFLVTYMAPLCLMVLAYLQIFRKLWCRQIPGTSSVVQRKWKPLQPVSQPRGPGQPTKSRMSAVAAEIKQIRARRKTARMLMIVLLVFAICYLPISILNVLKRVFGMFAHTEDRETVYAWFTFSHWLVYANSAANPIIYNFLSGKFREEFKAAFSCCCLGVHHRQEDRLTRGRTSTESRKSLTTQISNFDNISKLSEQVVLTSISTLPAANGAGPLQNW
Test [21] has as its target T5, Orexin receptor type 2. The experiment in a line: Counterscreen assay for antagonists of the orexin 1 receptor (OX1R; HCRTR1): Homogeneous Time Resolved Fluorescence (HTRF)-based cell-based dose response assay for antagonists of the orexin 2 receptor (OX2R; HCRTR2), run by assay provider. The format is functional.
For test [22], the target named is Paired box protein Pax-8 (Homo sapiens, UniProt Q06710). The experiment in a line: PAX8 transcriptional activity inhibition in RMG-I – RMG-I cells, luciferase, cherry-pick, dose response (AID 687027).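 Further: luciferase reporter driven by Pax8 target thyroperoxidase promoter measured by SteadyGlo luminescence.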 It is filed as functional, cell-based.
Paired box protein Pax-8, sequence (Q06710 whole entry): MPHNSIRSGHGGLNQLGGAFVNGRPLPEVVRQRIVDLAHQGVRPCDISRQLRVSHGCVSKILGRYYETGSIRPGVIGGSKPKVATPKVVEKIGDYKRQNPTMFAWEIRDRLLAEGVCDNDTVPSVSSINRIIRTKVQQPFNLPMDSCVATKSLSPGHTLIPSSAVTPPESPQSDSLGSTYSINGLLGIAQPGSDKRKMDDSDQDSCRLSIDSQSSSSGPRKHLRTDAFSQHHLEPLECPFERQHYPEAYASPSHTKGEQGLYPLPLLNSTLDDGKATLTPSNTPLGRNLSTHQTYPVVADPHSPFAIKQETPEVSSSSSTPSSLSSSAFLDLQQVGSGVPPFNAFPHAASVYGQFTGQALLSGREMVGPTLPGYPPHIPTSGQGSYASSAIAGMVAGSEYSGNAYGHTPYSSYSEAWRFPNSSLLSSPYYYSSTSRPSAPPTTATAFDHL
Test [23] can be described thus: general cell-killing toxicity readout – plate reader, dry powder samples, cytotoxicity control for PAX8 inhibitor project, dose response (AID 743021). It is filed as functional, cell-based.

The source made the active and inactive calls.

Serine/threonine-protein kinase Chk2, sequence (O96017 whole entry): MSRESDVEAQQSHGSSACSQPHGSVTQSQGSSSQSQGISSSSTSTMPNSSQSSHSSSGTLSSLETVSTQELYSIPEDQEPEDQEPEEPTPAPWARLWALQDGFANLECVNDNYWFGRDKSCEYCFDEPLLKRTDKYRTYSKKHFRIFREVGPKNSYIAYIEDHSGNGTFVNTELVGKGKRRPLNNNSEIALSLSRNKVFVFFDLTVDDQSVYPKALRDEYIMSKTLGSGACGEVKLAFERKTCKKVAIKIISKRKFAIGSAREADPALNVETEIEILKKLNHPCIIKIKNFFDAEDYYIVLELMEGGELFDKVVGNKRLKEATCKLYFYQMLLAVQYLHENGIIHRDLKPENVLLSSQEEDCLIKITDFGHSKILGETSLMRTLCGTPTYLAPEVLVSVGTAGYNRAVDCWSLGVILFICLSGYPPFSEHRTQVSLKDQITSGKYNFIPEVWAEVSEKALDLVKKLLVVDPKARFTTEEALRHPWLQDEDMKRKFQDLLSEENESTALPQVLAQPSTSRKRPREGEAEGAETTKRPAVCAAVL
MAP/microtubule affinity-regulating kinase 3, sequence (P27448 whole entry): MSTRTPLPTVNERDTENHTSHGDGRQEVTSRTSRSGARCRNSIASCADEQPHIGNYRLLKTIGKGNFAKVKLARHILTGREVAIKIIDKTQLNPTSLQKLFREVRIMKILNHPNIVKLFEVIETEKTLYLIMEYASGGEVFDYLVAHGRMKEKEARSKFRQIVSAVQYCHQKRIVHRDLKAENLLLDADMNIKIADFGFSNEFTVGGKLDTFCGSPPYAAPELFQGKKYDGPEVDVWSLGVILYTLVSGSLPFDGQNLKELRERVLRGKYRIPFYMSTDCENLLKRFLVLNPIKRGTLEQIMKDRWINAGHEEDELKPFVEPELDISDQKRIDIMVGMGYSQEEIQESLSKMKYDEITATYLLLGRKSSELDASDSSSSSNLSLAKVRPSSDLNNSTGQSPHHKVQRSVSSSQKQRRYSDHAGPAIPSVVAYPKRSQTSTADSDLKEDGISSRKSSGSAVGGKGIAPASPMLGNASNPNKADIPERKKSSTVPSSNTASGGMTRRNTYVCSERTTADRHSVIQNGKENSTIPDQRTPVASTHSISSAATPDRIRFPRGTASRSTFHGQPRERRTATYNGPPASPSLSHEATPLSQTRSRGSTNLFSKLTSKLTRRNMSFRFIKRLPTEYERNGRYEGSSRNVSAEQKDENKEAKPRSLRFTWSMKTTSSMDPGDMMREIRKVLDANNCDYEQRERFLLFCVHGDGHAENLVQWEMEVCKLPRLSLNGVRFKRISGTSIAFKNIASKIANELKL
Aurora kinase A, sequence (O14965 whole entry): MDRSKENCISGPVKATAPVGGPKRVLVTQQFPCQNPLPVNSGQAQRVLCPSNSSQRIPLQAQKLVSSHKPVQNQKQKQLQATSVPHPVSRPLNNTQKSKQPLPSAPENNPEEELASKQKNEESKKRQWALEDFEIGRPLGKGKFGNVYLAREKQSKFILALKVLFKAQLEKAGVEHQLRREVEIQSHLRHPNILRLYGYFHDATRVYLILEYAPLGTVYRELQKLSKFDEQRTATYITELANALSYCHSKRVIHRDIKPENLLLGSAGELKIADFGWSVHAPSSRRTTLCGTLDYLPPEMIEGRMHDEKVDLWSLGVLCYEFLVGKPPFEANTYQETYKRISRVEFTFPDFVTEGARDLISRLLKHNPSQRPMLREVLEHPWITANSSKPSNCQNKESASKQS

Take `Fc1ccc2c(c1)-c1n[nH]cc1CS2`: the inhibition constant (Ki) – broadly, the equilibrium dissociation constant of an inhibitor or competing ligand from its target – is 6.31 µM (active) in test [1]; 5.01 µM (active) in test [2]; 6.31 µM (active) in test [3]; 10 µM (active) in test [4]; 12.6 µM (active) in [5]; 15.8 µM (active) in test [6].
As to `COc1cccc(/C=N/Nc2cc(C)nc(-c3ccccc3O)n2)c1O`, the EC50 (as a rule, the midpoint of the concentration-response curve) in test [7] is 5.22 µM (inconclusive); in test [9], 0.876 µM (active); in test [10], > 150 µM (not active); in [11] it was 0.294 µM (active); in test [12], 6.64 µM (active); in [18], 357 µM (inconclusive). The CC50 (in general, the concentration at which the toxic effect on the cells reaches its halfway point) in test [8] is 5.1 µM (active). The IC50 (as a rule, the midpoint of a concentration-inhibition curve) in test [13] is > 66.2 µM (inactive); in test [14], > 49.8 µM (inactive); in test [15], 2.91 µM (active); in [16], 3.31 µM (active); in test [20], 11.9 µM (inactive); in test [21], > 50 µM (inactive). Further, the AC50 (as a rule, the midpoint of the concentration-response curve, whichever way the signal moves) was 30.1 µM (active) in [17], 1.93 µM (active) in test [19], 5.5 µM (active) in test [22] and 16.2 µM (active) in test [23].
